Reference: ChEMBL document CHEMBL5346893, “1,2,4-Amino-triazine derivatives as pyruvate dehydrogenase kinase inhibitors: Synthesis and pharmacological evaluation” (Eur J Med Chem, 2023)
Calls of active or inactive are those of the source. No cut-off for these calls is given here.

Assays:
[1] = target: T1, [Pyruvate dehydrogenase (acetyl-transferring)] kinase isozyme 1, mitochondrial (Homo sapiens, UniProt Q15118); test: Inhibition of PDK1 (unknown origin) at 1.5 uM incubated for 30 mins followed by substrate addition measured after 60 mins in presence of ATP by ADP-Glo luminescent assay relative to control; details: time 90.0 min, values are per cent of control
T1 sequence (Q15118 whole entry): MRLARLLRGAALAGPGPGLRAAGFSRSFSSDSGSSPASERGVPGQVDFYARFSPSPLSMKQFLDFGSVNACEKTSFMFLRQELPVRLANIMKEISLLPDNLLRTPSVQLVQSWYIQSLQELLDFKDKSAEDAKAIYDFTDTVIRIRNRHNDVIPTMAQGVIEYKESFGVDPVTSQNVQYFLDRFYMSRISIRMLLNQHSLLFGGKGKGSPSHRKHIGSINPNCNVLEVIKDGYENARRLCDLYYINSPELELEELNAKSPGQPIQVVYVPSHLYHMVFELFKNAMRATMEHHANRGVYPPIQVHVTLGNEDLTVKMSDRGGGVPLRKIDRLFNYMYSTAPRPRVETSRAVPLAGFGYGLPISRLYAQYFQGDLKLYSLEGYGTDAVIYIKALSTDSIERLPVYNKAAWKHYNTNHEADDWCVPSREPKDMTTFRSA

[2] = target: T1, [Pyruvate dehydrogenase (acetyl-transferring)] kinase isozyme 1, mitochondrial; test: Inhibition of PDK1 (unknown origin) incubated for 30 mins followed by substrate addition measured after 60 mins in presence of ATP by ADP-Glo luminescent assay
[3] = target: [Pyruvate dehydrogenase (acetyl-transferring)] kinase isozyme 4, mitochondrial (Homo sapiens) (UniProt Q16654); test: Inhibition of PDK4 (unknown origin) at 1.5 uM incubated for 30 mins followed by substrate addition measured after 60 mins in presence of ATP by ADP-Glo luminescent assay relative to control; details: time 90.0 min
Sequence of [Pyruvate dehydrogenase (acetyl-transferring)] kinase isozyme 4, mitochondrial (Homo sapiens) (Q16654 whole entry, looked up): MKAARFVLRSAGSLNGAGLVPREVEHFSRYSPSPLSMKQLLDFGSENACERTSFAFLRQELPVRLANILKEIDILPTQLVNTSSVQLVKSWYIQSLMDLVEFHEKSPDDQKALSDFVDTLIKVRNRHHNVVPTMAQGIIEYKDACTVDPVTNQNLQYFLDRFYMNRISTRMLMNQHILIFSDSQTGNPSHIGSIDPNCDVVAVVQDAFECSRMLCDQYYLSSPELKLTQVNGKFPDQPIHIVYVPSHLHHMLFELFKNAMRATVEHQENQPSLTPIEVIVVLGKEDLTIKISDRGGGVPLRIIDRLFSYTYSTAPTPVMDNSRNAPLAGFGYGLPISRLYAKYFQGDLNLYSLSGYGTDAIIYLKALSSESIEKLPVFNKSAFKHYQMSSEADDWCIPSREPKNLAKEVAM

[4] = target: [Pyruvate dehydrogenase (acetyl-transferring)] kinase isozyme 2, mitochondrial (Homo sapiens) (UniProt Q15119); test: Inhibition of PDK2 (unknown origin) at 1.5 uM incubated for 30 mins followed by substrate addition measured after 60 mins in presence of ATP by ADP-Glo luminescent assay relative to control; details: time 90.0 min
[5] = target: T2, Heat shock protein HSP90 (Homo sapiens, UniProt P07900+P08238); test: Inhibition of human recombinant HSP90 at 1.5 uM incubated for 30 mins by fluorescence polarization based analysis relative to control; format: protein assay
[6] = test system: BXPC-3; test: Antiproliferative activity against human BXPC-3 cells expressing wild type KRAS cultured as 2D spheroids assessed as inhibition of cell growth measured after 72 hrs by MTT assay; format: functional, cell-based; details: BXPC-3, 72 h
[7] = test system: PSN1; test: Antiproliferative activity against human PSN1 cells expressing KRAS mutant cultured as 2D spheroids assessed as inhibition of cell growth measured after 72 hrs by MTT assay; format: functional, cell-based; details: PSN1, 72 h
[8] = test system: BXPC-3; test: Antiproliferative activity against human BXPC-3 cells expressing wild type KRAS cultured as 3D spheroids assessed as inhibition of cell growth measured after 72 hrs by MTT assay; format: functional, cell-based; details: BXPC-3, 72 h
[9] = test system: PSN1; test: Antiproliferative activity against human PSN1 cells expressing KRAS mutant cultured as 3D spheroids assessed as inhibition of cell growth measured after 72 hrs by MTT assay; format: functional, cell-based; details: PSN1, 72 h
[10] = test system: PSN1; test: Downregulation of PDHA1 phosphorylation in human PSN1 cells at IC50 incubated for 24 hrs by ELISA assay; format: functional, cell-based
[11] = test system: PSN1; test: Inhibition of PDK in human PSN1 cells expressing KRAS mutant assessed as increase in cellular oxygen consumption at IC50 incubated for 60 mins by fluorescence based analysis; format: cell-based
[12] = test system: PSN1; test: Inhibition of PDK in human PSN1 cells expressing KRAS mutant assessed as decrease in lactate production levels at IC50 incubated for 60 mins by colorimetric analysis; format: cell-based
[13] = test system: PSN1; test: Induction of reactive oxygen species production in human PSN1 cells assessed as increase in cellular hydrogen peroxide formation at 5 uM by CM-H2DCFDA staining based analysis; format: functional, cell-based
[14] = test system: PSN1; test: Induction of reactive oxygen species production in human PSN1 cells assessed as decrease in total cellular sulfhydryls level at IC50 incubated for 24 hrs by DTNB reagent based spectrophotometric analysis; format: functional, cell-based
[15] = test system: PSN1; test: Induction of mitochondrial membrane potential loss in human PSN1 cells at IC50 incubated for 60 mins by fluorescence based analysis; format: functional
[16] = test system: PSN1; test: Induction of mitochondrial damage in human PSN1 cells assessed as increase in mitochondria substantial swelling at IC50 incubated for 24 hrs by staining based TEM analysis; format: functional, cell-based
[17] = test system: PSN1; test: Induction of mitochondrial damage in human PSN1 cells assessed as decrease in mitochondria inner membrane electron density at IC50 incubated for 24 hrs by staining based TEM analysis; format: functional, cell-based
[18] = test system: PSN1; test: Induction of mitochondrial damage in human PSN1 cells assessed as decrease in mitochondria matrix region electron density at IC50 incubated for 24 hrs by staining based TEM analysis; format: functional, cell-based
[19] = test system: PSN1; test: Induction of mitochondrial damage in human PSN1 cells assessed as increase in disruption of cristae at IC50 incubated for 24 hrs by staining based TEM analysis; format: functional, cell-based
[20] = test system: PSN1; test: Induction of apoptosis in human PSN1 cells assessed as brightly stained nuclei at IC50 incubated for 48 hrs by Hoechst 33258 staining based confocal microscopic analysis; format: functional, cell-based
[21] = test system: PSN1; test: Induction of apoptosis in human PSN1 cells assessed as chromatin condensation at IC50 incubated for 48 hrs by Hoechst 33258 staining based confocal microscopic analysis; format: functional, cell-based
[22] = target: [Pyruvate dehydrogenase (acetyl-transferring)] kinase isozyme 3, mitochondrial (Homo sapiens) (UniProt Q15120); test: Inhibition of PDK3 (unknown origin) at 1.5 uM incubated for 30 mins followed by substrate addition measured after 60 mins in presence of ATP by ADP-Glo luminescent assay relative to control; details: time 90.0 min
Sequence of [Pyruvate dehydrogenase (acetyl-transferring)] kinase isozyme 3, mitochondrial (Homo sapiens) (Q15120 whole entry, looked up): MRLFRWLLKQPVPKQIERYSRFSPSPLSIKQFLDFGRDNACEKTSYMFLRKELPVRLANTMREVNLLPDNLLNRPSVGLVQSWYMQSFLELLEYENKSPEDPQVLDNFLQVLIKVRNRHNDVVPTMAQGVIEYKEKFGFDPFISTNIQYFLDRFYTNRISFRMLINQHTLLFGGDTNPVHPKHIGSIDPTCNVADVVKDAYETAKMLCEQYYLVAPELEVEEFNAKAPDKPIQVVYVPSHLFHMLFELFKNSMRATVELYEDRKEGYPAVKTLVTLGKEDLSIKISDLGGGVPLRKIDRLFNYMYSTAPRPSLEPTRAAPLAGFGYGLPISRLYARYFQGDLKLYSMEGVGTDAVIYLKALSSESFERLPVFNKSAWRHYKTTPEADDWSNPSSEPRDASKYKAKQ

[23] = target: T2, Heat shock protein HSP90; test: Inhibition of human recombinant HSP90 incubated for 30 mins by fluorescence polarization based analysis; format: protein assay
[24] = In vivo antitumor activity against mouse Lewis lung carcinoma cell line implanted in C57BL mouse assessed as tumor growth inhibition at 20 mg/kg, ip administered daily on day 7 to 14 measured after 15 days; format: functional; details: 360 h, time 15 day, read-out: TGI
[25] = Toxicity in C57BL mouse implanted with mouse Lewis lung carcinoma cell line assessed as reduction in body weight loss at 20 mg/kg, ip administered daily on day 7 to 14 measured after 15 days; format: organism-based; details: in vivo, 360 h, time 15 day
[26] = Toxicity in C57BL mouse implanted with mouse Lewis lung carcinoma cell line assessed as anorexia at 20 mg/kg, ip administered daily on day 7 to 14 measured after 15 days; format: organism-based; details: in vivo, 360 h, time 15 day
[27] = test system: Lewis lung carcinoma; test: In vivo antitumor activity against mouse Lewis lung carcinoma cell line implanted in C57BL mouse assessed as reduction in PDHA1 phosphorylation at 20 mg/kg, ip administered daily on day 7 to 14 measured after 15 days by ELISA assay; format: functional, organism-based; details: time 15.0 day
[28] = In vivo antitumor activity against mouse Lewis lung carcinoma cell line implanted in C57BL mouse assessed as tumor growth inhibition at 60 mg/kg, ip administered daily on day 7 to 14 measured after 15 days; format: functional; details: 360 h, time 15 day, read-out: TGI

Compound: Cn1cc(-c2nnc(N)nc2-c2c[nH]c3ccc(F)cc23)c2cc(Br)cnc21
- residual activity [1]: 0%
- IC50 [2]: 60 nM
- inhibition [3]: 0%
- inhibition [4]: 100%
- inhibition [5]: 60%
- IC50 [6]: 200 nM
- IC50 [7]: 600 nM
- IC50 [8]: 6900 nM
- IC50 [9]: 11200 nM
- Activity [10]: Active
- inhibition [11]: Active
- inhibition [12]: Active
- Activity [13]: Active
- Activity [14]: Active
- Activity [15]: Active
- Activity [16]: Active
- Activity [17]: Active
- Activity [18]: Active
- Activity [19]: Active
- Activity [20]: Active
- Activity [21]: Active

Compound: COc1ccc2[nH]cc(-c3nnc(N)nc3-c3cn(C)c4ncc(Br)cc34)c2c1
- residual activity [1]: 0%
- IC50 [2]: 30 nM
- inhibition [3]: 0%
- inhibition [4]: 100%
- inhibition [22]: 100%
- inhibition [5]: 0%
- IC50 [23]: 100 nM
- IC50 [6]: 100 nM
- IC50 [7]: 1000 nM
- IC50 [8]: 3300 nM
- IC50 [9]: 11900 nM
- Activity [10]: Active
- inhibition [11]: Active
- inhibition [12]: Active
- Activity [13]: Active
- Activity [14]: Active
- Activity ([15]; 1 h): 45%
- Activity [16]: Active
- Activity [17]: Active
- Activity [18]: Active
- Activity [19]: Active
- Activity [20]: Active
- Activity [21]: Active
- inhibition in vivo at 20 mg/kg [24]: 86%
- Activity [25]: Non-Toxic
- Activity [26]: ~ 20%
- Activity [27]: Active

Compound: Nc1ccn([C@@H]2O[C@H](CO)[C@@H](O)C2(F)F)c(=O)n1 [GEMCITABINE]
- IC50 [6]: 100 nM
- IC50 [7]: 20 nM
- inhibition in vivo at 60 mg/kg [28]: 80%

Compound: Cn1cc(-c2nnc(N)nc2-c2c[nH]c3ccc(Br)cc23)c2cc(Br)cnc21
- residual activity [1]: 60%
- IC50 [2]: 210 nM
- inhibition [3]: 60%
- inhibition [4]: 100%
- inhibition [5]: 40%
- IC50 [23]: 1400 nM
- IC50 [6]: 100 nM
- IC50 [7]: 1300 nM
- IC50 [8]: 24800 nM
- IC50 [9]: 39100 nM
- Activity [10]: Active
- inhibition [11]: Active
- inhibition [12]: Active
- Activity [13]: Active
- Activity [14]: Active
- Activity [15]: Active
